Measured values reported in patent publication US20210045385A1, “PYRIDAZINONE-SUBSTITUTED KETOXIMES AS HERBICIDES” (FMC Corporation, priority 2018, published 2021).

What was measured:
Format in all cases: in vivo
[1] = tested on: pigweed (Amaranthus retroflexus); experiment: Test A preemergence, visual plant response rating; conditions: for Pigweed plant response rating: 125 g ai/ha, preemergence, 0 to 100 scale, 0 no effect, 100 complete control; for Pigweed plant response rating (0 to 100 scale): approx. 10 days
Outline: (§1)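 Compared with untreated controls, treated plants received a visual injury score on a 0–100 scale around 10 days after application. The compound, in a non-phytotoxic solvent with surfactant, was given as a preemergence soil spray or postemergence at the one- to two-leaf stage.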

[2] = tested on: Italian ryegrass (Lolium multiflorum); experiment: Test A preemergence, visual plant response rating; conditions: for Ryegrass, Italian plant response rating: 125 g ai/ha, preemergence, 0 to 100 scale, 0 no effect, 100 complete control; for Ryegrass, Italian plant response rating (0 to 100 scale): approx. 10 days
Outline: as §1

[3] = tested on: foxtail, giant (giant foxtail, Setaria faberii); experiment: Test A preemergence, visual plant response rating; conditions: for Foxtail, Giant plant response rating: 125 g ai/ha, preemergence, 0 to 100 scale, 0 no effect, 100 complete control; for Foxtail, Giant plant response rating (0 to 100 scale): approx. 10 days
Outline: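 Preemergence: seeds in loam/sand blend given directed soil spray of compound in non-phytotoxic solvent with surfactant. Postemergence: plants 2–10 cm, one- to two-leaf stage, sprayed with same formulation. Visual injury rated vs untreated controls after ~10 days in greenhouse, 0 (no effect) to 100 (complete control).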

[4] = tested on: barnyardgrass (Echinochloa crus-galli); experiment: Test A preemergence, visual plant response rating; conditions: for Barnyardgrass plant response rating: 125 g ai/ha, preemergence, 0 to 100 scale, 0 no effect, 100 complete control; for Barnyardgrass plant response rating (0 to 100 scale): approx. 10 days
Outline: as §1

[5] = tested on: ragweed (common ragweed, Ambrosia elatior); experiment: Test A preemergence, visual plant response rating; conditions: for Ragweed plant response rating: 125 g ai/ha, preemergence, 0 to 100 scale, 0 no effect, 100 complete control; for Ragweed plant response rating (0 to 100 scale): approx. 10 days
Outline: as §1

kochia (Kochia scoparia) [6] = experiment: Test A preemergence, visual plant response rating; conditions: for Kochia plant response rating: 125 g ai/ha, preemergence, 0 to 100 scale, 0 no effect, 100 complete control; for Kochia plant response rating (0 to 100 scale): approx. 10 days
Outline: as §1

rice (Oryza sativa) = experiment: Test B flooded paddy test, visual plant response rating; conditions: 250 g ai/ha, Flood, applied to paddy water, 2-leaf stage, evaluated after 13 to 15 days
Procedure: (§2) Plant species in the flooded paddy test selected from rice (Oryza sativa), sedge, umbrella (small-flower umbrella sedge, Cyperus difformis), ducksalad (Heteranhera limosa), and barnyardgrass (Echinochloa crus-galli) were grown to the 2-leaf stage for testing. At time of treatment, test pots were flooded to 3 cm above the soil surface treated by application of test compounds directly to the paddy water, and then maintained at that water depth for the duration of the test. Treated plants and controls were maintained in a greenhouse for 13 to 15 days, after which time all species were compared to controls and visually evaluated. […] A dash (-) response means no test result.

[7] = tested on: ducksalad (Heteranhera limosa); experiment: as above; conditions: 250 g ai/ha, Flood, applied to paddy water, 2-leaf stage, evaluated after 13 to 15 days
Procedure: as §2

[8] = tested on: barnyardgrass (Echinochloa crus-galli); experiment: as above; conditions: 250 g ai/ha, Flood, applied to paddy water, 2-leaf stage, evaluated after 13 to 15 days
Procedure: as §2

[9] = tested on: sedge, umbrella (small-flower umbrella sedge, Cyperus difformis); experiment: as above; conditions: 250 g ai/ha, Flood, applied to paddy water, 2-leaf stage, evaluated after 13 to 15 days
Procedure: as §2

[10] = tested on: pigweed (Amaranthus retroflexus); experiment: Test A postemergence, visual plant response rating; conditions: for Pigweed plant response rating (0 to 100 scale): 500 g ai/ha, postemergence, 0 is no effect, 100 is complete control; for Pigweed plant response rating: Postemergence, 125 g ai/ha, 0 to 100 scale (0 no effect, 100 complete control)
Description: (§3) Seeds of plant species selected from barnyardgrass (Echinochloa crus-galli), kochia (Kochia scoparia), ragweed (common ragweed, Ambrosia elatior), Italian ryegrass (Lolium multiflorum), foxtail, giant (giant foxtail, Setaria faberii), foxtail, green (green foxtail, Setaria viridis), and pigweed (Amaranthus retroflexus) were planted into a blend of loam soil and sand and treated preemergence with a directed soil spray using test chemicals formulated in a non-phytotoxic solvent mixture which included a surfactant.
(§4) At the same time, plants selected from these weed species and also wheat (Triticum aestivum), corn (Zea mays), blackgrass (Alopecurus myosuroides), and galium (catchweed bedstraw, Galium aparine) were planted in pots containing the same blend of loam soil and sand and treated with postemergence applications of test chemicals formulated in the same manner. Plants ranged in height from 2 to 10 cm and were in the one- to two-leaf stage for the postemergence treatment. Treated plants and untreated controls were maintained in a greenhouse for approximately 10 days, after which time all treated plants were compared to untreated controls and visually evaluated for injury. Plant response ratings, summarized in Table A, are based on a 0 to 100 scale where 0 is no effect and 100 is complete control. A dash (-) response means no test result.

[11] = tested on: wheat (Triticum aestivum); experiment: Test A postemergence, visual plant response rating; conditions: for Wheat plant response rating (0 to 100 scale): 500 g ai/ha, postemergence, 0 is no effect, 100 is complete control; for Wheat plant response rating: Postemergence, 125 g ai/ha, 0 to 100 scale (0 no effect, 100 complete control)
Description: as §3, §4

[12] = tested on: blackgrass (Alopecurus myosuroides); experiment: Test A postemergence, visual plant response rating; conditions: for Blackgrass plant response rating (0 to 100 scale): 500 g ai/ha, postemergence, 0 is no effect, 100 is complete control; for Blackgrass plant response rating: Postemergence, 125 g ai/ha, 0 to 100 scale (0 no effect, 100 complete control)
Description: as §3, §4

[13] = tested on: Italian ryegrass (Lolium multiflorum); experiment: Test A postemergence, visual plant response rating; conditions: for Ryegrass, Italian plant response rating (0 to 100 scale): 500 g ai/ha, postemergence, 0 is no effect, 100 is complete control; for Ryegrass, Italian plant response rating: Postemergence, 125 g ai/ha, 0 to 100 scale (0 no effect, 100 complete control)
Description: as §3, §4

[14] = tested on: foxtail, giant (giant foxtail, Setaria faberii); experiment: Test A postemergence, visual plant response rating; conditions: for Foxtail, Giant plant response rating (0 to 100 scale): 500 g ai/ha, postemergence, 0 is no effect, 100 is complete control; for Foxtail, Giant plant response rating: Postemergence, 125 g ai/ha, 0 to 100 scale (0 no effect, 100 complete control)
Description: as §3, §4

corn (Zea mays) = experiment: Test A postemergence, visual plant response rating; conditions: for Corn plant response rating (0 to 100 scale): 500 g ai/ha, postemergence, 0 is no effect, 100 is complete control; for Corn plant response rating: Postemergence, 125 g ai/ha, 0 to 100 scale (0 no effect, 100 complete control)
Description: as §3, §4

[15] = tested on: barnyardgrass (Echinochloa crus-galli); experiment: Test A postemergence, visual plant response rating; conditions: for Barnyardgrass plant response rating (0 to 100 scale): 500 g ai/ha, postemergence, 0 is no effect, 100 is complete control; for Barnyardgrass plant response rating: Postemergence, 125 g ai/ha, 0 to 100 scale (0 no effect, 100 complete control)
Description: as §3, §4

[16] = tested on: ragweed (common ragweed, Ambrosia elatior); experiment: Test A postemergence, visual plant response rating; conditions: for Ragweed plant response rating (0 to 100 scale): 500 g ai/ha, postemergence, 0 is no effect, 100 is complete control; for Ragweed plant response rating: Postemergence, 125 g ai/ha, 0 to 100 scale (0 no effect, 100 complete control)
Description: as §3, §4

kochia (Kochia scoparia) [17] = experiment: Test A postemergence, visual plant response rating; conditions: for Kochia plant response rating (0 to 100 scale): 500 g ai/ha, postemergence, 0 is no effect, 100 is complete control; for Kochia plant response rating: Postemergence, 125 g ai/ha, 0 to 100 scale (0 no effect, 100 complete control)
Description: as §3, §4

[18] = tested on: galium (catchweed bedstraw, Galium aparine); experiment: Test A postemergence, visual plant response rating; conditions: for Galium plant response rating (0 to 100 scale): 500 g ai/ha, postemergence, 0 is no effect, 100 is complete control; for Galium plant response rating: Postemergence, 125 g ai/ha, 0 to 100 scale (0 no effect, 100 complete control)
Description: as §3, §4

Structure (SMILES)	Pigweed plant response rating (0 to 100 scale) ([1]; 500 g ai/ha Preemergence)	Ryegrass, Italian plant response rating (0 to 100 scale) ([2]; 500 g ai/ha Preemergence)	Foxtail, Giant plant response rating (0 to 100 scale) ([3]; 500 g ai/ha Preemergence)	Barnyardgrass plant response rating (0 to 100 scale) ([4]; 500 g ai/ha Preemergence)	Ragweed plant response rating (0 to 100 scale) ([5]; 500 g ai/ha Preemergence)	Kochia plant response rating (0 to 100 scale) (kochia (Kochia scoparia) [6]; 500 g ai/ha Preemergence)	Plant response rating, Rice (0 to 100 scale, 0 is no effect, 100 is complete control) (rice (Oryza sativa))	Plant response rating, Ducksalad (0 to 100 scale, 0 is no effect, 100 is complete control) [7]	Plant response rating, Barnyardgrass (0 to 100 scale, 0 is no effect, 100 is complete control) [8]	Plant response rating, Sedge, Umbrella (0 to 100 scale, 0 is no effect, 100 is complete control) [9]	Pigweed plant response rating (0 to 100 scale) [10]	Pigweed plant response rating [10]	Wheat plant response rating (0 to 100 scale) [11]	Wheat plant response rating [11]	Blackgrass plant response rating (0 to 100 scale) [12]	Blackgrass plant response rating [12]	Ryegrass, Italian plant response rating (0 to 100 scale) [13]	Ryegrass, Italian plant response rating [13]	Foxtail, Giant plant response rating (0 to 100 scale) [14]	Foxtail, Giant plant response rating [14]	further results
CON=C(c1c(O)c(C)nn(C)c1=O)c1ccc(OC)c2ccccc12 [Compound 55]	0	30	90	50	80	0	0	0	0	0	20	0	20	0	80	70	70	0	50	20	Pigweed plant response rating [1]: 0; Ryegrass, Italian plant response rating [2]: 0; Foxtail, Giant plant response rating [3]: 10; Barnyardgrass plant response rating [4]: 0; Ragweed plant response rating [5]: 10; Kochia plant response rating (kochia (Kochia scoparia) [6]): 0; Corn plant response rating (0 to 100 scale) (corn (Zea mays)): 30; Corn plant response rating (corn (Zea mays)): 0; Barnyardgrass plant response rating (0 to 100 scale) [15]: 30; Barnyardgrass plant response rating [15]: 20; Ragweed plant response rating (0 to 100 scale) [16]: 30; Ragweed plant response rating [16]: 0; Kochia plant response rating (0 to 100 scale) (kochia (Kochia scoparia) [17]): 30; Kochia plant response rating (kochia (Kochia scoparia) [17]): 10; Galium plant response rating (0 to 100 scale) [18]: 70; Galium plant response rating [18]: 50
CO/N=C(/c1cccc(F)c1)c1c(O)c(C)nn(C)c1=O [Compound 32]	50	50	0	0	40	10	0	0	0	0	40	40	10	0	20	0	60	40	20	10	Pigweed plant response rating (0 to 100 scale) ([1]; 125 g ai/ha Preemergence): 0; Ryegrass, Italian plant response rating (0 to 100 scale) ([2]; 125 g ai/ha Preemergence): 20; Foxtail, Giant plant response rating (0 to 100 scale) ([3]; 125 g ai/ha Preemergence): 0; Barnyardgrass plant response rating (0 to 100 scale) ([4]; 125 g ai/ha Preemergence): 0; Ragweed plant response rating (0 to 100 scale) ([5]; 125 g ai/ha Preemergence): 20; Kochia plant response rating (0 to 100 scale) (kochia (Kochia scoparia) [6]; 125 g ai/ha Preemergence): 0; Corn plant response rating (0 to 100 scale) (corn (Zea mays)): 0; Corn plant response rating (corn (Zea mays)): 0; Barnyardgrass plant response rating (0 to 100 scale) [15]: 20; Barnyardgrass plant response rating [15]: 10; Ragweed plant response rating (0 to 100 scale) [16]: 80; Ragweed plant response rating [16]: 50; Kochia plant response rating (0 to 100 scale) (kochia (Kochia scoparia) [17]): 70; Kochia plant response rating (kochia (Kochia scoparia) [17]): 20; Galium plant response rating (0 to 100 scale) [18]: 80; Galium plant response rating [18]: 70
CO/N=C(\c1csc(C)c1)c1c(O)c(C)nn(C)c1=O [Compound 44]	0	50	10	10	0	0	0	0	0	0	10	10	0	0	30	0	0	20	50	0	Pigweed plant response rating [1]: 0; Ryegrass, Italian plant response rating [2]: 0; Foxtail, Giant plant response rating [3]: 0; Barnyardgrass plant response rating [4]: 0; Ragweed plant response rating [5]: 0; Kochia plant response rating (kochia (Kochia scoparia) [6]): 0; Corn plant response rating (0 to 100 scale) (corn (Zea mays)): 20; Corn plant response rating (corn (Zea mays)): 0; Barnyardgrass plant response rating (0 to 100 scale) [15]: 30; Barnyardgrass plant response rating [15]: 0; Ragweed plant response rating (0 to 100 scale) [16]: 40; Ragweed plant response rating [16]: 0; Kochia plant response rating (0 to 100 scale) (kochia (Kochia scoparia) [17]): 0; Kochia plant response rating (kochia (Kochia scoparia) [17]): 0; Galium plant response rating (0 to 100 scale) [18]: 50; Galium plant response rating [18]: 20
